“And” between values parts separate entries of the source, which are not always exact repeats. Equal values may be shown once. Records with an inconclusive call do not appear. The source made the active and inactive calls.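 How the source made its calls: active means fitted half-maximal concentration of signal decrease at or below twice the sample's top tested concentration; inconclusive means flat curve between -70 and -30 percent, or poor fit; inactive means flat within 30 percent, signal rise, or potency above limit.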
biological target: T. gondii ME49Luc in IFN-y HeLa, luciferase, 72 h; test: T. gondii growth inhibition with IFN-gamma, dose response, cell-based, ME49Luc, HeLa, luciferase, 72 h (AID 1259418)

SMILES | AC50
O=C(NC1CCCC1)N1CC(=O)N2[C@H](CO)[C@H](c3ccc(C4=CCCCC4)cc3)[C@@H]2C1 | 35.3 µM
CC(C)CC#Cc1ccc([C@H]2[C@@H](CO)N3C(=O)CN(C(=O)c4cccc(F)c4)C[C@H]23)cc1 | 15.5 µM
CCc1c(C)sc2c1CCN(Cc1nc(-c3cccc(OC)c3OC)oc1C)C2c1ccccc1 (stereo not drawn) | 15.7 µM
COc1ccc(-c2nc(CN(c3ccccc3OC)S(=O)(=O)c3ccccc3)c(C)o2)cc1 | 7.78 µM
COc1ccc(CNc2nc(SCc3ccc(Cl)cc3)nc3ccccc23)cc1 | 35.5 µM
Cc1ccc(CSC2=Nc3ccccc3C3=NC(CC(=O)NCc4ccc5c(c4)OCO5)C(=O)N23)cc1 (stereo not drawn) | > 39 µM (inactive)
NC(N)=N/N=C/c1c(Cl)cccc1Cl | 19.7 µM
Cc1ccc(NC(=O)N2CCN(Cc3nc(-c4cccc(Cl)c4)oc3C)CC2)cc1 | > 39 µM (inactive)
COc1cccc(-c2nc(C)c(-c3ccc(SCc4cccc(Cl)c4)nn3)s2)c1 | 11.1 µM
O=C(NCc1cncc2c1CCN(Cc1cccc(F)c1)C2)C1CC1 | 8.45 µM
Cc1cccc(C(=O)N2CCC(C(=O)NCCc3csc(C)n3)CC2)c1 | 26.4 µM
CCC(=O)N1CC[C@@H]2[C@H]1c1cc(C#Cc3ccccc3F)ccc1N[C@@H]2CO | 29.2 µM
O=C1CCc2cc(S(=O)(=O)N3CCc4ccccc43)cc3c2N1CCC3 | > 39 µM (inactive)
COc1ccc(-c2nc(NC3CCCC3)c3ccccc3n2)cc1 | 35.8 µM
N#Cc1cccc(-c2ccc(C3[C@@H]4CN(C(=O)c5ccc6c(c5)OCO6)C[C@H]3N4)cc2)c1 (stereo partly drawn) | 14.5 µM and 9.62 µM
CCOc1ccc(-c2nc(CN(c3ccccc3OC)S(=O)(=O)c3ccccc3)c(C)o2)cc1 | 8.3 µM
C(=C\c1ccc(C2[C@@H]3CN(Cc4nccs4)C[C@H]2N3)cc1)/c1ccccc1 (stereo partly drawn) | 17.1 µM
COc1ccccc1CNC(=O)CC1N=C2c3ccccc3N=C(SCc3ccccc3Cl)N2C1=O (stereo not drawn) | 20.4 µM
COc1ccccc1NS(=O)(=O)c1cc2c3c(c1)CCC(=O)N3CCC2 | 25.4 µM
Cc1ccc(C(=O)Nc2ccc3c(c2)CCC(=O)N3)s1 | 11.6 µM
COc1cccc(N(Cc2nc(-c3cccc(C)c3)oc2C)S(=O)(=O)c2ccc(C)cc2)c1 | 4.46 µM
O=C(NCc1ccc(F)cc1F)c1cc(-c2cnc(N3CCCC3)nc2)cn1CC1CC1 | 13.2 µM
Cc1nc(OCC(=O)Nc2ccc(Cl)cc2)c2ccccc2n1 | > 39 µM (inactive)
Cc1sc2ncnc(Oc3ccc(OCc4ccccc4)cc3)c2c1C | 7.63 µM and 8.8 µM

SMILES | AC50
Cc1ccccc1S(=O)(=O)N1C[C@@H]2N[C@H](C1)C2c1ccc(-c2cccc(C#N)c2)cc1 (stereo partly drawn) | 15.6 µM and 2.57 µM and 18.7 µM
N#Cc1cccc(-c2ccc3c(c2)[C@@H]2[C@@H](CCN2S(=O)(=O)c2ccc(F)cc2)[C@H](CO)N3)c1 | 17.8 µM
Cc1ccc(-c2noc(-c3ccc(N4CCC(N5CCCCC5)CC4)nc3)n2)cc1 | 24.8 µM
CC(C)(C)c1ccc(S(=O)(=O)N2CCC[C@@H]2C(=O)NCCc2csc(-c3ccccc3)n2)cc1 | 4.48 µM
CCOc1ccc(-c2nc(CN(c3ccc(OC)cc3)S(=O)(=O)c3ccccc3C)c(C)o2)cc1 | 11.8 µM
CC(C)C#Cc1ccc([C@H]2[C@@H](C#N)N(C(=O)c3cccc(F)c3)[C@@H]2CO)cc1 | 22 µM
OC1(c2cccc(C(F)(F)F)c2)CCN(Cc2ccc3[nH]ccc3c2)CC1 | 33.5 µM
OC[C@H]1[C@H](c2ccc(C#Cc3ccccc3F)cc2)[C@@H]2CN(CC3CCOCC3)CCCCN12 | 9.56 µM
O=C(C[C@H]1CC[C@H]2[C@@H](COC[C@H](O)CN2Cc2ccc(Oc3ccccc3)cc2)O1)N1CCN(c2ccccc2)CC1 | 12.1 µM and 21.2 µM
CC(=O)O.CC(=O)O.[Cl][Pt+2][Cl].[NH-]C1CCCCC1.[NH2-] | 25.4 µM
COc1ccc(N(Cc2nc(-c3ccc(OC)c(OC)c3)oc2C)S(=O)(=O)c2ccccc2)cc1 | 9.25 µM
COc1cccc(C#Cc2ccc([C@@H]3[C@@H](C#N)N[C@@H]3CO)cc2)c1 | 38.4 µM
COCCN(CCOC)C(=O)c1cc2c(c3ccccc3n2CC2CC2)n1-c1ncccn1 | 28 µM
COc1ccc(-c2nc(NCCCN3CCN(Cc4ccccc4)CC3)c3ccccc3n2)cc1 | > 39 µM (inactive)
COc1ccc(N(Cc2nc(-c3ccc(C)cc3)oc2C)S(=O)(=O)c2ccc(C)cc2)cc1 | 13.2 µM
COc1ccc(NC(=O)CN2CCC3(CC2)N=C(c2cccc(Cl)c2)C(=O)N3)cc1 | 18.2 µM
COc1ccc(S(=O)(=O)N2CCC(C(=O)NCCc3csc(-c4ccccc4)n3)CC2)cc1 | > 20 µM (inactive)
CCCNC(=O)C[C@H]1CC[C@H]2[C@@H](COC[C@@H](O)CN2C(=O)Nc2ccc(Cl)c(Cl)c2)O1 | 25.9 µM
O=C(CC1N=C2c3ccccc3N=C(SCc3ccc(F)cc3)N2C1=O)NCCc1ccccc1 (stereo not drawn) | 4.59 µM
CCc1ccc(S(=O)(=O)Nc2ccc(-c3nc(-c4ccc(C)cc4C)co3)cc2)cc1 | 8.52 µM
O=C(CC1Nc2c3ccccc3nc(=S)n2C1=O)NCc1ccccc1Cl (stereo not drawn) | 28.7 µM
Fc1ccccc1CSc1nc(NCc2ccccc2)c2ccccc2n1 | 17.9 µM
Cc1ccc(S(=O)(=O)N2CCC3(CC2)NCCN=C3NCc2ccc(C(F)(F)F)cc2)c(C)c1 | 9.08 µM
Clc1ccc(-n2ncc3c(NCc4cccc(Cl)c4)ncnc32)cc1 | 16.9 µM

SMILES | AC50
O=C(Cc1ccccc1)N1CC(=O)N2[C@H](CO)[C@@H](c3ccc(-c4ccc(F)cc4)cc3)[C@H]2C1 | 22.2 µM
COc1ccc(S(=O)(=O)N2CCc3c([nH]c4ccccc34)C2c2cc(F)ccc2F)cc1 (stereo not drawn) | 17.1 µM
O=S(=O)(c1ccccc1)N1CCCCN2[C@@H](CO)[C@@H](c3ccc(C#CC4CCCC4)cc3)[C@@H]2C1 | 17.5 µM and 6.86 µM
C/C=C/c1ccc([C@H]2[C@H](CO)N3CCCCN(S(=O)(=O)c4ccc(OC)cc4)C[C@@H]23)cc1 | > 39 µM (inactive)
CCOc1ccc(-c2nc(CN3CCN(C(=O)Nc4ccccc4)CC3)c(C)o2)cc1 | 16.9 µM
Cc1ccsc1C(=O)N1CCc2nc(N3CCOCC3)nc(NC(C)C)c2C1 | > 39 µM (inactive)
O=S(=O)(c1cccs1)N1CCC2(CC1)NCCN=C2NCc1ccc(C(F)(F)F)cc1 | 23 µM
COc1ccccc1CN1CC[C@@H]2[C@H]1c1cc(-c3cccc(C(=O)N(C)C)c3)ccc1N[C@@H]2CO | 19.6 µM
O=C(CC1N=C2c3ccccc3N=C(SCc3ccc(Cl)cc3)N2C1=O)NCCc1ccccc1 (stereo not drawn) | 20.4 µM
CCCCCCC(C)(C)c1ccc(C2CC(O)CCC2CCCO)c(O)c1 (stereo not drawn) | 8.47 µM
Cc1oc(-c2cccc(Cl)c2)nc1CN(c1ccccc1)S(=O)(=O)c1cccs1 | 10.4 µM
Clc1ccccc1-c1nc(NCCCN2CCN(c3ccccc3)CC2)c2ccccc2n1 | > 39 µM (inactive)
Cc1ccc(-c2nc(Cn3nnc(-c4nc(-c5cccs5)no4)c3C)c(C)o2)cc1 | 3.2 µM
Clc1ccc(CNc2nc(SCc3cccc(Cl)c3)nc3ccccc23)cc1 | 5.24 µM
Fc1cccc(CSc2nc(NCc3ccc(Cl)cc3)c3ccccc3n2)c1 | 14 µM
Cc1cccc(-c2ccc([C@@H]3[C@@H](CO)N4C(=O)CN(C(=O)c5ccc6c(c5)OCO6)C[C@H]34)cc2)c1 | 18.8 µM
O=C(CCC1N=C2c3ccccc3N=C(SCc3ccc(Cl)cc3)N2C1=O)NCc1cccs1 (stereo not drawn) | 14.9 µM
COc1ccc(-c2nc(Nc3ccc(CN4CCC(C)CC4)cc3)c3ccccc3n2)cc1 | 9.71 µM and 14.6 µM
N#Cc1cccc(-c2ccc(C3[C@@H]4CN(C(=O)Nc5ccc(C(F)(F)F)cc5)C[C@H]3N4)cc2)c1 (stereo partly drawn) | 5.28 µM
COc1ccccc1N(Cc1nc(-c2ccc(C)cc2)oc1C)S(=O)(=O)c1ccccc1C | 15.1 µM
O=C(CCC1N=C2c3ccccc3N=C(SCc3ccc(F)cc3)N2C1=O)NCc1ccccc1 (stereo not drawn) | 31.8 µM
CC(C)(C)OC(=O)Nc1cc(-c2cn[nH]c2C2CCCN(C(=O)OC(C)(C)C)C2)ccn1 (stereo not drawn) | 10.1 µM
COc1ccc2c(c1)NC1(CCN(C(=O)Cc3ccc(OC)c(OC)c3)CC1)c1cccn1-2 | > 39 µM (inactive)
CN(C)C(=O)c1cccc(-c2ccc3c(c2)[C@@H]2[C@@H](CCN2C(=O)Cc2ccccc2)[C@@H](CO)N3)c1 | 17.6 µM

SMILES | AC50
O=C(c1cccc2[nH]ccc12)N1CCCC1c1nc(-c2cccc(Cl)c2)no1 (stereo not drawn) | 23.3 µM
N#C[C@@H]1N[C@H](CO)[C@H]1c1ccc(-c2cccc(F)c2)cc1 | 26.3 µM
Cc1ccc(S(=O)(=O)N2CCC3(CC2)NCCN=C3NCc2ccccc2Cl)cc1C | 12.2 µM
Cc1cccc(CNC2=NCCNC23CCN(S(=O)(=O)c2cc(C)c(C)cc2C)CC3)c1 | 5.49 µM
CC(C)C#Cc1ccc([C@@H]2[C@H](CO)N3C(=O)CN(S(=O)(=O)c4ccccc4)C[C@@H]23)cc1 | > 39 µM (inactive)
COc1ccccc1C(=O)N1CCC2(CC1)Nc1cc(F)ccc1-n1cccc12 | > 39 µM (inactive)
Cn1nc2c(c1C(=O)Nc1ccc(N3CCCCC3)c(F)c1)CCCC2 | 15.9 µM
C[C@H](NC(=O)C[C@H]1CC[C@@H]2[C@@H](COc3ccc(NS(=O)(=O)c4ccc(Cl)cc4)cc3C(=O)N2C)O1)c1ccccc1 | 11.1 µM and 18.1 µM
N#C[C@H]1[C@@H](c2ccc(-c3cccc(F)c3)cc2)[C@H](CO)N1C(=O)NC1CCCC1 | 10.1 µM
O=S1(=O)c2ccccc2O[C@H]2CCN(Cc3ccc(Cl)cc3)CC[C@H]2N1CC1CC1 | 32 µM
OC[C@H]1Nc2ccc(C#Cc3ccc(F)cc3)cc2[C@H]2[C@@H]1CCN2Cc1ccc2c(c1)OCO2 | 20 µM
CCc1ccc(S(=O)(=O)N2CCC3(CC2)NCCN=C3NCc2ccc(F)c(Cl)c2)cc1 | 4.73 µM
COCCC(=O)C1Cc2nc(-c3ccccc3)sc2N1CC1CC1 (stereo not drawn) | 27.2 µM and 15.5 µM
Cc1ccc(S(=O)(=O)N2CCC3(CC2)NCCN=C3NC2CCCCCC2)c(C)c1 | 14.2 µM
O=C(Nc1ccc(-c2nc(-c3ccccc3)co2)cc1)c1cccc(Cl)c1 | 35.3 µM
COc1ccc(-c2nc(CN(c3ccccc3)S(=O)(=O)c3ccccc3)c(C)o2)cc1OC | 3.77 µM
COc1cccc(CNC2=NCCNC23CCN(S(=O)(=O)c2ccc(Cl)s2)CC3)c1 | 11.6 µM
COc1ccc(-c2nc3c(s2)CN(C(=O)Nc2cccc(C)c2)CC3)cc1OC | > 39 µM (inactive)
COc1ccc(C#Cc2ccc([C@@H]3[C@H](CO)N4C(=O)CN(C(=O)NC(C)C)C[C@@H]34)cc2)cc1 | 28.3 µM
COc1ccc(CNC(=O)CCC2N=C3c4ccccc4N=C(SCc4cccc(F)c4)N3C2=O)cc1 (stereo not drawn) | 20.4 µM
O=C(Nc1ccc(F)cc1)N1CC(=O)N2[C@H](CO)[C@@H](c3ccc(-c4cccc(F)c4)cc3)[C@@H]2C1 | 19.9 µM

Source: PubChem BioAssay AID1259418 (Broad Institute, 2018)
